Test results as given in patent US20090253704A1, “PYRROLOTRIAZINONE DERIVATIVES FOR USE AS STEAROYL CoA DESATURASE INHIBITORS” (priority 2008, published 2009).

Each compound was assayed against T1, Stearoyl-CoA desaturase (SCD) (Rattus norvegicus, UniProt P07308) (assay: SCD assay in rat liver microsomes ([3H]stearoyl CoA desaturation, adapted from Talamo and Bloch)). Conditions: rat liver microsomes 0.2 mg/ml final, 30 min preincubation, 45 min reaction at room temperature.
T1 construct: from tissue; host or cells: liver microsomes of male Sprague Dawley rats, SCD induced by carbohydrate-rich diet
T1 sequence (P07308 1-358): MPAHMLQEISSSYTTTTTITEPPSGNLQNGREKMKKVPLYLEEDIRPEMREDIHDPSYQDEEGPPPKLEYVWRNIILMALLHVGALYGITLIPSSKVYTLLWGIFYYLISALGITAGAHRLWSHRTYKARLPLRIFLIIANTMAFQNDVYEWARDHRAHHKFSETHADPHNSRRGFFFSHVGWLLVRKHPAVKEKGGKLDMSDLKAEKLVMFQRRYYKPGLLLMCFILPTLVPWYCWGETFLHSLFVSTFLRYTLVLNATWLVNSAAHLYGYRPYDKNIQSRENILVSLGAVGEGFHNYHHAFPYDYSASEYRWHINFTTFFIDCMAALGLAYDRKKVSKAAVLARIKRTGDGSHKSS
Format: biochemical
Excerpt: The identification of compounds of the invention as SCD inhibitors was readily accomplished using the SCD enzyme and microsomal assay procedure described in Talamo and Bloch (1969) Analytical Biochemistry 29:300-304.
The rat liver microsomes were collected according to the procedure described in Ozols (1990) Methods Enzm, 182:225.
Male Spraque Dawley Rats were placed on regimented fasting protocol for one week to stimulate SCD enzymatic activity. 48-hour periods were alternated between feeding and fasting to induce and down-regulate SCD activity with SCD activity being induced via carbohydrate rich diet prior to liver perfusion and collection.
The rats were anesthetized with Isoflurane inhalation anesthetic, the liver perfused with cold phosphate buffered saline (PBS), weighed, and chilled in cold homogenization buffer (250 mM sucrose, 10 mM Tris, 1 mM EDTA, pH 7.6).
The livers were finely minced and placed in homogenization tube. Homogenization buffer (40 mL) was added to the homogenization tube and the liver homogenized and centrifuged in a pre-chilled […] for 10 min at 4° C.
Following centrifugation, the supernatant was collected and the pellet removed and discarded. The supernatant was centrifuge at 10,000 G for 35 minutes. Following centrifugation, the supernatant was collect and the pellet discarded. The supernatant was then centrifuged in a pre-chilled 45-Ti rotor at 130,000 G (41,000 RPM) for 90 minutes at 4° C.
The supernatant was then aspirated off and the collected microsomal pellet washed in 25 mL of Glycerol PBS (1×PBS 7.4, 20% Glycerol) and resuspended in 4-5 volumes of Glycerol PBS.
The protein concentration of the microsomal preparation was determined by BCA assay (Pierce) and the microsomes were aliquoted and stored at −80° C.
Biobeads were ground to a smaller size in a mortar and pestle and resuspended in 3.6% TCA. The beads were then filtered through […] mesh.
SCD was determined in the desaturase assay buffer. This assay buffer contained 0.1 M Tris buffer, pH 7.2, 2 mM NADH, 4.8 mM ATP, 0.5 mM CoA, 4.8 mM MgCl2, and 0.1% BSA.
The Procedure for the SCD Assay (Adapted from Talamo and Bloch (1969) Analytical Biochemistry 29:300-304)
1 μl of each compound of Formula I was added to an assay plate by a low volume (0.5-10 μL) multichannel pipette. A DMSO control was also prepared. The microsomes were quickly thawed and added to assay buffer so that a concentration of 0.4 mg/ml was achieved (0.2 mg/ml assay final). 50 μl of the microsome suspension in assay buffer was then added into each well in the compound assay plate, the plate was covered, and the microsomes preincubated with the compounds for 30 minutes on the orbital shaker, 50-75 rpm, at room temperature.
After preincubation, the reaction was initiated by the addition of 50 μl of substrate solution (20 μM Stearoyl CoA, [3H]Stearoyl CoA, 74 nCi) to the preincubated microsomes/compound suspensions in MilliQ (Millipore) H2O. The reaction mixtures were then incubated for 45 minutes on the orbital shaker at 50-75 rpm at room temperature.
The reaction was terminated by the addition of 10 μl of 21% trichloroacetic acid (TCA) to the reaction mixture followed incubation on the orbital shaker for 30 minutes at 50-75 rpm at room temperature followed by centrifugation for 5 minutes at 3700 rpm.
50 μl of a 6% Bio-Bead suspension in H2O was added to the reaction mixture and the assay plate was sealed. The Bio-Bead mixture was incubated on the orbital shaker for 1 hour, 100-150 rpm at room temperature, and then the mixture was centrifuged at 2000 g for 5 minutes to pellet the Bio-Beads.
25 μl of the supernatant was harvested from each well and transferred to a detection plate. 100 μl of OptiPhase SuperMix scintillation cocktail (containing sufficient NaOH to neutralize the TCA) was added and the solutions mixed by vigorous shaking (300-400 rpm) for 5 minutes at room temperature.
In the case of `O=C(Nc1cc2c(=O)n(CCc3ccc(Cl)cc3)cnn2c1)C(O)CO` (stereo not drawn) [N-(3-(4-chlorophenethyl)-4-oxo-3,4-dihydropyrrolo[1,2-f][1,2,4]triazin-6-yl)-2,3-dihydroxypropanamide], the IC50 is reported as 830 nM.
Compound `O=C(Nc1cc2c(=O)n(Cc3ccc(Cl)c(Cl)c3)cnn2c1)OCc1ccccc1` [benzyl 3-(3,4-dichlorobenzyl)-4-oxo-3,4-dihydropyrrolo[1,2-f][1,2,4]triazin-6-ylcarbamate] has an IC50 of 1600 nM.
`O=C(CO)Nc1cc2c(=O)n(CCc3ccc(Cl)cc3)cnn2c1` [N-(3-(4-chlorophenethyl)-4-oxo-3,4-dihydropyrrolo[1,2-f][1,2,4]triazin-6-yl)-2-hydroxyacetamide] showed an IC50 of 14000 nM.
`O=C(CO)Nc1cc2c(=O)n(Cc3ccc(Cl)c(Cl)c3)cnn2c1` [N-(3-(3,4-dichlorobenzyl)-4-oxo-3,4-dihydropyrrolo[1,2-f][1,2,4]triazin-6-yl)-2-hydroxyacetamide] showed an IC50 of 250 nM.
Work on `O=C(CO)Nc1cc2c(=O)n(CCOc3ccccc3Cl)cnn2c1` [N-(3-(2-(2-chlorophenoxy)ethyl)-4-oxo-3,4-dihydropyrrolo[1,2-f][1,2,4]triazin-6-yl)-2-hydroxyacetamide] yielded an IC50 of 5600 nM.
Compound `CCCCCCC(=O)Nc1cc2c(=O)n(Cc3ccc(Cl)c(Cl)c3)cnn2c1` [N-(3-(3,4-dichlorobenzyl)-4-oxo-3,4-dihydropyrrolo[1,2-f][1,2,4]triazin-6-yl)heptanamide] has an IC50 of 27000 nM.
Work on `O=C(Nc1cc2c(=O)n(Cc3ccc(Cl)c(Cl)c3)cnn2c1)C(O)CO` (stereo not drawn) [N-(3-(3,4-dichlorobenzyl)-4-oxo-3,4-dihydropyrrolo[1,2-f][1,2,4]triazin-6-yl)-2,3-dihydroxypropanamide] yielded an IC50 of 10 nM.
`O=C(CO)Nc1cc2c(=O)n(Cc3ccc(Cl)c(C(F)(F)F)c3)cnn2c1` [N-(3-(4-chloro-3-(trifluoromethyl)benzyl)-4-oxo-3,4-dihydropyrrolo[1,2-f][1,2,4]triazin-6-yl)-2-hydroxyacetamide] showed an IC50 of 320 nM.
Compound `O=C(CO)Nc1cc2c(=O)n(CCCOc3cc(Cl)ccc3Cl)cnn2c1` [N-(3-(3-(2,5-dichlorophenoxy)propyl)-4-oxo-3,4-dihydropyrrolo[1,2-f][1,2,4]triazin-6-yl)-2-hydroxyacetamide] has an IC50 of 240 nM.
